{
  "source": "paper PMC8692993",
  "about": "“PPARα and PPARγ activation is associated with pleural mesothelioma invasion but therapeutic inhibition is ineffective” (iScience, 2021)",
  "key": {"AE17": {"tested_on": "AE17", "assay": "MTT cell metabolic activity assay, AE17", "format": "cell-based, mouse", "conditions": "AE17, 48 h, 0.391-100 μM; effect at higher micromolar concentrations", "protocol": "(§1) Cells were harvested and seeded in 96-flat well plates (Corning) at a density of 5 x 10^4 cells/mL overnight. Media was removed and 100 μL media with GW6471 or GW9662 at indicated concentrations was added to each well. Cell viability and toxicity were measured at 48 h. Cells were incubated with 50 μL of a 2 mg/mL solution of (3-(4,5-dimethyl-thiazole-2-yl)-2,5-[…] tetrazolium (MTT, Sigma-Aldrich) in PBS for 4 h and then exposed to 100 μL dimethyl sulfoxide (DMSO; Sigma-Aldrich). Cell viability was measured by absorption at 570 nm in a microplate spectrophotometer (Spectromax 250 plate reader). Results are shown as relative cell viability."}, "renal cell carcinoma": {"tested_on": "renal cell carcinoma", "set-up": "method as in Abu Aboud et al., 2015", "conditions": "25 μM; ref Abu Aboud et al., 2015; cited from earlier work"}, "PPARγ [1]": {"biological_target": "T1, PPARγ (Homo sapiens, UniProt P37231)", "T1 sequence (P37231 238-503 limits assumed)": "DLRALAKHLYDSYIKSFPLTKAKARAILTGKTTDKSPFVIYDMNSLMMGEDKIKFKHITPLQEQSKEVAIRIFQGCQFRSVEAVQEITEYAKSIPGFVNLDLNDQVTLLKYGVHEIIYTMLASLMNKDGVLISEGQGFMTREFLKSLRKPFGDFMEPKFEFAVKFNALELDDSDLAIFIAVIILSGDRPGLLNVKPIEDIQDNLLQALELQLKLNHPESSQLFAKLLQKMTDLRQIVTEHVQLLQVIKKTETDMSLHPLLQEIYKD", "assay": "HG5LN reporter cell assay, PPARγ-mediated transcription", "format": "cell-based", "set-up": "expressed in transfected cells; host or cells: HG5LN (HeLa-derived, GAL4RE-luciferase)", "from_the_text": "Nuclear receptors, including PPARα and γ, are ligand-inducible transcription factors that form heterodimers with retinoid X receptors and bind to specific DNA sites located in the enhancer/promoter region of target genes, releasing co-repressors and/or recruiting co-activators ([Wang, 2010]). We therefore assessed the functional consequences of the ligands on PPARα and γ-mediated transcriptional activation in reporter cell lines. These cell lines were generated as previously reported by a two-step transfection procedure ([Seimandi et al., 2005]). First, a stable cell line, HG5LN, expressing the reporter gene (GAL4RE-luciferase) was developed from the HeLa cell line. These cells were then transfected with a plasmid expressing the C-terminal ligand-binding domain of PPARα or γ fused to GAL4 DNA-binding domain. The parental HG5LN cells were used as a control to test non-specific modulation of luciferase expression by the small molecules investigated (Figure S4A). The HG5LN PPAR reporter cells therefore allow comparison of the functional activity at, and selectivity of different ligands for, PPARα and γ. […] As expected ([Abu Aboud et al., 2015]), GW6471 potently antagonized PPARα (Figure 4E and Table 1).\nA transfected […] cell line HG5LN was used ([Balaguer et al., 2001]). These cells were cultured in Dubecco's modified Eagle's medium (DMEM-F12 Thermo Fisher Scientific) with phenol red and supplemented with 5% foetal calf serum, incubated at 37°C in a 5% CO2/95% air-humidified atmosphere. Luciferase assays were performed in DMEM-F12 (Thermo Fisher Scientific) without phenol red and supplemented with 5% dextran-coated charcoal-stripped FCS (test culture medium), puromycin (Thermo Fisher Scientific) 0.5 μg/mL and geneticin (Thermo Fisher Scientific) 1 mg/mL. Cells were seeded at a density of 5 x 10^4 cells/well and incubated for 8 h at 37°C in a 96-well plate white opaque tissue culture plates (Becton-Dickinson). Tested compounds were added in serial dilutions and incubated for 16 h at 37°C. After incubation, the medium containing the effectors was carefully removed and replaced by culture medium containing 3 x 10^−4 mol/L luciferin (Sigma Chemicals). After 5 min incubation at room temperature, the 96-well plate was then read with a Microbeta Wallac luminometer and the luminescence was measured in the living cells for 2 s. All experiments were performed in quadruplicate."}, "VGE62": {"tested_on": "VGE62", "assay": "MTT cell metabolic activity assay, VGE62", "format": "cell-based, human", "conditions": "VGE62, 48 h, 0.391-100 μM; effect at higher micromolar concentrations", "protocol": "as §1"}, "PPARγ [2]": {"biological_target": "T1, PPARγ", "set-up": "expressed in transfected cells; host or cells: HG5LN (HeLa-derived, GAL4RE-luciferase); method as in Goldstein et al., 2017", "conditions": "an IC50 value was not reported, ref Goldstein et al., 2017, read-out: Functionality, Lit. IC50; cited from earlier work"}, "[3]": {"tested_on": "HAP1, HAP1 PPARA KO, and HAP1 PPARG KO cell lines", "assay": "Scratch wound migration assay, HAP1 lines", "format": "cell-based, human", "conditions": "1 and 10 μM", "protocol": "Cells were harvested and seeded in Incucyte®ImageLock 96-well plates (Essen BioScience) at a density of 10 x 10^4 cells/mL overnight. A scratch wound was performed on the confluent cells with the 96-pin IncuCyte WoundMaker Tool (Essen BioScience). For migration assays, cells were washed with PBS once before adding 100 μL media with GW6471 at indicated concentrations. For matrigel invasion assays, cells were washed with PBS once before adding 50 μL of matrigel basement membrane matrix (FAL356231; Corning, NY, USA) at 8 mg/mL; lastly 100 μL media with GW6471 at indicated concentrations were added on top of the matrigel. Wounded cells were incubated in the IncuCyte ZOOM® at 37°C with 5% CO2. Data were analysed using the Incucyte® Scratch Wound Cell Migration Software Module and calculating the Relative Wound Density (%) (RWD) for both migration and invasion assays."}},
  "note": "Like-named read-outs stand apart in the source and are kept apart here.",
  "data": [
    {"smiles": "CCC(=O)NC[C@H](Cc1ccc(OCCc2nc(-c3ccccc3)oc2C)cc1)N/C(C)=C\\C(=O)c1ccc(C(F)(F)F)cc1", "note": "[GW6471]", "values": [
      {"measurement": "Cell viability (MTT)", "setting": "AE17", "value": "lowered viability"},
      {"measurement": "Cell-cycle arrest and apoptosis", "setting": "renal cell carcinoma", "value": "significant cell-cycle arrest and apoptosis"},
      {"measurement": "Functionality, Type", "setting": "PPARγ [1]", "value": "antagonist"},
      {"measurement": "IC50", "setting": "PPARγ [1]; inhibition of agonism by 30 nM rosiglitazone, 16 h incubation, mean of 3 experiments ± SEM", "value": "210 ± 64", "unit": "nM"},
      {"measurement": "Cell viability (MTT)", "setting": "VGE62", "value": "lowered viability"},
      {"measurement": "IC50", "setting": "PPARγ [2]", "value": "< 1000", "unit": "nM"},
      {"measurement": "Effect on migration compared between PPARA KO, PPARG KO and wild-type cells", "setting": "[3]", "value": "not significantly different"},
      {"measurement": "In vitro migration", "setting": "[3]; HAP1 lines", "value": "concentration-dependent effect on in vitro migration"}
    ]}
  ]
}
